{"source": "paper PMC6548501", "about": "“Sterol transfer by atypical cholesterol-binding NPC2 proteins in coral-algal symbiosis” (eLife, 2019)", "molecular_target": "T1, Aiptasia non-canonical NPC2 XM_021052404 (Exaiptasia diaphana, UniProt A0A913XQG8)", "T1 construct": "expressed in HEK 293T, NPC2 - five-proline linker - crmCherry - 3xHA (C-terminal), lysate, anti-HA pull-down; native protein also precipitated from Aiptasia CC7", "T1 sequence (A0A913XQG8 60-190)": "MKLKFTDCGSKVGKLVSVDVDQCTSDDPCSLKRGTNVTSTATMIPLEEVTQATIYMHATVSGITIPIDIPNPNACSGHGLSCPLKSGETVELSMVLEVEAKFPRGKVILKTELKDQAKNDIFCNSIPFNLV", "experiment": "immunoprecipitation-lipidomics (mass spectrometry of co-eluted sterols)", "format": "binding", "details": "HEK 293T lysate mixed with Symbiodiniaceae SSB01 homogenate (sterol mixture), pH 7 or pH 5", "data": [{"compound": "CC(C)CCC[C@@H](C)[C@H]1CC[C@H]2[C@@H]3CC=C4C[C@@H](O)CC[C@]4(C)[C@H]3CC[C@]12C", "note": "[cholesterol]", "values": [{"measurement": "immunoprecipitation-lipidomics (mass spectrometry of co-eluted sterols)", "result": "directly bound to cholesterol and various sterols the way other NPC2 proteins normally do"}]}]}
